Data from PubChem BioAssay AID2060607 (Molecular Pharmacology Branch, DTP, NCI, 2025).

System: 876862-298-R-J1-PDC complex spheroids, viability % test/control
Assay: Anticancer human tumor 876862-298-R-J1-PDC patient-derived endometrial carcinoma cell line growth inhibition [CLK]
Settings: for IC50: curve of first compound; for viability, T/C: stronger effect = lower value
Excerpt: A high-throughput screen of multi-cell type tumor spheroids was designed to identify active combinations of […] and targeted small molecules. Complex spheroids include a stromal component modeled by human endothelial cells (HUVEC) and fibroblasts modeled by human mesenchymal stem cells (MSCs). The concentration ranges selected for each drug and investigational agent were based upon clinically achievable concentrations if the clinical Cmax of the agent was known.
Compounds. The drugs and investigational agents: cirtuvivint (SM08502; NSC835563), CC-671 (NSC850746), vemurafenib (NSC761431), tapotoclax (NSC804041), sotorasib (NSC818433), adagrasib (NSC831453), MRTX-1133 (NSC836407), BAY2416964 (NSC825713), copanlisib (NSC816437), inavolisib (NSC800729), abemaciclib (NSC768073), osimertinib (NSC779217), entinostat (NSC756642), eltanexor (KPT-8602, NSC794443), venetoclax (NSC766270), ceralasertib (NSC777638), bortezomib (NSC756655), olaparib (NSC753686), talazoparib (NSC767125), alisertib (NSC759677), peposertib (NSC802822), gemcitabine (NSC613327), 5-fluorouracil (NSC19893), SN-38 (NSC673596), oxaliplatin (NSC266046), paclitaxel (NSC125973), and doxorubicin (NSC123127), were obtained from the National Cancer Institute (NCI) Developmental Therapeutics Program Chemical Repository. The FDA-approved anticancer drug set is available from the Developmental Therapeutics Program at https://dtp.cancer.gov/organization/dscb/obtaining/available plates.htm. […] The stock solutions were prepared in dimethyl sulfoxide (DMSO, Sigma-Aldrich, St. Louis, MO, cat. D2650), except for the platinum complexes which were prepared in saline (Quality Biological, Gaithersburg, MD, cat. 114-055-101), at 800-fold the tested concentration and stored at -70 degrees C prior to their use. All drugs and investigational agents were tested over a range starting from a high concentration at or near the clinical Cmax and decreasing in half-log increments. If the clinical Cmax for an agent had not been determined, the highest concentration tested was 10 microM.
Cell Culture. All cells were maintained in an incubator at 37 degrees C and 5% CO2 with 95% humidity. The PDC lines were cultured according to standard operating procedures established by the NCI PDMR. Briefly, all PDCs were thawed and cultured in Matrigel-coated flasks prepared with a working solution of 1X Ham's F-12 nutrient mix, without supplementation (Invitrogen, Waltham, MA, cat. 11765054), 100 U/mL penicillin-streptomycin (Invitrogen, cat. 15140122), and 2.5% Matrigel (Corning Inc., Corning, NY, cat. 354248) for the first three passages. The 947758-054-R-J2-PDC line was cultured in 6B/Colon 1A media, which includes advanced DMEM/F-12 (Thermo Fisher Scientific, cat. 12634028), 10 mM HEPES (Thermo Fisher Scientific, cat. 15630080), 1X GlutaMAX supplement (Thermo Fisher Scientific, cat. 35050061), 0.1 mg/mL primocin (InvivoGen, cat. ant-pm-2), 10% defined fetal bovine serum, heat inactivated (HyClone Laboratories Inc., cat. SH30070.03HI), 1.25 mM N-Acetyl-L-cysteine (Sigma-Aldrich, cat. A9165), 10 mM nicotinamide (Sigma-Aldrich, cat. N0636), 1X B-27 supplement (Thermo Fisher Scientific, cat. 17504044), 1X N-2 supplement (Thermo Fisher Scientific, cat. 17502048), and 10 microM Y-27632 dihydrochloride (Tocris Bioscience, cat. 1254). The 876862-298-R-J1-PDC was cultured in 6E media, which includes all 6B/Colon 1A media components plus 50% L-WRN conditioned media (ATCC, cat. CRL-3276), 50 ng/mL recombinant human EGF recombinant protein (hEGF; Thermo Fisher Scientific, cat. PHG0311), 10 ng/mL recombinant human fibroblast growth factor 10 (hGFG-10; PeproTech, cat. 100-26), 1 ng/mL recombinant human fibroblast growth factor 2 (hFGF-2; PeproTech, cat. 100-18B), and 1 µM prostaglandin E2 (PGE2; Tocris, cat. 2296). The 227483-062-R1-J1-PDC line was cultured in Panc media, containing all 6E components except hFGF-2, with the addition of 500 nM SB-431542 (Selleckchem, cat. S1067) and 10 nM gastrin (Tocris, cat. 3006). […]

[1] = second compound 0.0316 µM, first compound 0.0316 µM
[2] = second compound 0.0316 µM, first compound 0.1 µM
[3] = second compound 0.0316 µM, first compound 0.316 µM
[4] = second compound 0.0316 µM, first compound 1 µM
[5] = second compound 0.1 µM, first compound 0.0316 µM
[6] = second compound 0.1 µM, first compound 0.1 µM
[7] = second compound 0.1 µM, first compound 0.316 µM
[8] = second compound 0.1 µM, first compound 1 µM
[9] = second compound 0.316 µM, first compound 0.0316 µM
[10] = second compound 0.316 µM, first compound 0.1 µM
[11] = second compound 0.316 µM, first compound 0.316 µM
[12] = second compound 0.316 µM, first compound 1 µM
[13] = second compound 1 µM, first compound 0.0316 µM
[14] = second compound 1 µM, first compound 0.1 µM
[15] = second compound 1 µM, first compound 0.316 µM
[16] = second compound 1 µM, first compound 1 µM
[17] = second compound 3.16 µM, first compound 0.0316 µM
[18] = second compound 3.16 µM, first compound 0.1 µM
[19] = second compound 3.16 µM, first compound 0.316 µM
[20] = second compound 3.16 µM, first compound 1 µM
[21] = second compound 10 µM, first compound 0.0316 µM
[22] = second compound 10 µM, first compound 0.1 µM
[23] = second compound 10 µM, first compound 0.316 µM
[24] = second compound 10 µM, first compound 1 µM
[25] = second compound 0.0316 µM, first compound 0.00316 µM
[26] = second compound 0.0316 µM, first compound 0.01 µM
[27] = second compound 0.1 µM, first compound 0.00316 µM
[28] = second compound 0.1 µM, first compound 0.01 µM
[29] = second compound 0.316 µM, first compound 0.00316 µM
[30] = second compound 0.316 µM, first compound 0.01 µM
[31] = second compound 1 µM, first compound 0.00316 µM
[32] = second compound 1 µM, first compound 0.01 µM
[33] = second compound 3.16 µM, first compound 0.00316 µM
[34] = second compound 3.16 µM, first compound 0.01 µM
[35] = second compound 10 µM, first compound 0.00316 µM
[36] = second compound 10 µM, first compound 0.01 µM
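Further: spheroids exposed to drugs for 7 days before readout.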
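Wherever viability, T/C is given: 100% = DMSO vehicle control wells.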

## CC(Nc1ccc2c(c1)OCCn1cc(N3C(=O)OCC3C(F)F)nc1-2)C(N)=O (stereo unspecified) + CN1CCN(c2cc(C(=O)Nc3cc4cc(-c5cnn(C)c5)ccc4cn3)ccn2)CC1
Second compound 0.0316 µM
  IC50: 862 nM
Second compound 0.1 µM
  IC50: < 31.6 nM
Second compound 0.316 µM
  IC50: < 31.6 nM
Second compound 1 µM
  IC50: < 31.6 nM
Second compound 3.16 µM
  IC50: < 31.6 nM
Second compound 10 µM
  IC50: < 31.6 nM
[1]
  viability, T/C: 88.6%
[2]
  viability, T/C: 79%
[3]
  viability, T/C: 56.9%
[4]
  viability, T/C: 50%
Second compound 0.0316 µM, first compound 3.16 µM
  viability, T/C: 38.6%
Second compound 0.0316 µM, first compound 10 µM
  viability, T/C: 28.6%
[5]
  viability, T/C: 43%
[6]
  viability, T/C: 41.3%
[7]
  viability, T/C: 32.6%
[8]
  viability, T/C: 25.1%
Second compound 0.1 µM, first compound 3.16 µM
  viability, T/C: 21.5%
Second compound 0.1 µM, first compound 10 µM
  viability, T/C: 15.5%
[9]
  viability, T/C: 3.15%
[10]
  viability, T/C: 3.14%
[11]
  viability, T/C: 3.55%
[12]
  viability, T/C: 2.62%
Second compound 0.316 µM, first compound 3.16 µM
  viability, T/C: 2.92%
Second compound 0.316 µM, first compound 10 µM
  viability, T/C: 3.77%
[13]
  viability, T/C: 0.54%
[14]
  viability, T/C: 0.79%
[15]
  viability, T/C: 1.03%
[16]
  viability, T/C: 0.19%
Second compound 1 µM, first compound 3.16 µM
  viability, T/C: 0.18%
Second compound 1 µM, first compound 10 µM
  viability, T/C: 1.05%
[17]
  viability, T/C: 0.69%
[18]
  viability, T/C: 2.49%
[19]
  viability, T/C: 1.55%
[20]
  viability, T/C: 2.4%
Second compound 3.16 µM, first compound 3.16 µM
  viability, T/C: 2.04%
Second compound 3.16 µM, first compound 10 µM
  viability, T/C: 0.86%
[21]
  viability, T/C: 1.76%
[22]
  viability, T/C: 0.59%
[23]
  viability, T/C: 1.6%
[24]
  viability, T/C: 0.79%
Second compound 10 µM, first compound 3.16 µM
  viability, T/C: 0.45%
Second compound 10 µM, first compound 10 µM
  viability, T/C: 1.26%

## CCN1CCN(Cc2ccc(Nc3ncc(F)c(-c4cc(F)c5nc(C)n(C(C)C)c5c4)n3)nc2)CC1 + CN1CCN(c2cc(C(=O)Nc3cc4cc(-c5cnn(C)c5)ccc4cn3)ccn2)CC1
Second compound 0.0316 µM
  IC50: 678 nM
Second compound 0.1 µM
  IC50: < 3.16 nM
Second compound 0.316 µM
  IC50: < 3.16 nM
Second compound 1 µM
  IC50: < 3.16 nM
Second compound 3.16 µM
  IC50: < 3.16 nM
Second compound 10 µM
  IC50: < 3.16 nM
[25]
  viability, T/C: 90.2%
[26]
  viability, T/C: 81.3%
[1]
  viability, T/C: 73.3%
[2]
  viability, T/C: 74.8%
[3]
  viability, T/C: 52.3%
[4]
  viability, T/C: 47.5%
[27]
  viability, T/C: 47%
[28]
  viability, T/C: 45%
[5]
  viability, T/C: 44.1%
[6]
  viability, T/C: 47.3%
[7]
  viability, T/C: 40.9%
[8]
  viability, T/C: 43.3%
[29]
  viability, T/C: 5.03%
[30]
  viability, T/C: 5.13%
[9]
  viability, T/C: 6.69%
[10]
  viability, T/C: 7.27%
[11]
  viability, T/C: 9.15%
[12]
  viability, T/C: 9.4%
[31]
  viability, T/C: 0.94%
[32]
  viability, T/C: 1.28%
[13]
  viability, T/C: 1.38%
[14]
  viability, T/C: 1.66%
[15]
  viability, T/C: 2.25%
[16]
  viability, T/C: 3.04%
[33]
  viability, T/C: 1.66%
[34]
  viability, T/C: 0.97%
[17]
  viability, T/C: 1.47%
[18]
  viability, T/C: 1.34%
[19]
  viability, T/C: 2.18%
[20]
  viability, T/C: 3.2%
[35]
  viability, T/C: 0.6%
[36]
  viability, T/C: 0.92%
[21]
  viability, T/C: 1.95%
[22]
  viability, T/C: 2.18%
[23]
  viability, T/C: 1.88%
[24]
  viability, T/C: 2.14%

## COc1c(OCCCN2CCOCC2)ccc2c3n(c(=NC(=O)c4cnc(N)nc4)nc12)CCN3 + CN1CCN(c2cc(C(=O)Nc3cc4cc(-c5cnn(C)c5)ccc4cn3)ccn2)CC1
Second compound 0.0316 µM
  IC50: 48.3 nM
Second compound 0.1 µM
  IC50: < 3.16 nM
Second compound 0.316 µM
  IC50: < 3.16 nM
Second compound 1 µM
  IC50: < 3.16 nM
Second compound 3.16 µM
  IC50: < 3.16 nM
Second compound 10 µM
  IC50: < 3.16 nM
[25]
  viability, T/C: 90.4%
[26]
  viability, T/C: 74.4%
[1]
  viability, T/C: 65.2%
[2]
  viability, T/C: 26.8%
[3]
  viability, T/C: 16.7%
[4]
  viability, T/C: 17.8%
[27]
  viability, T/C: 47.1%
[28]
  viability, T/C: 40%
[5]
  viability, T/C: 28.3%
[6]
  viability, T/C: 14.6%
[7]
  viability, T/C: 11.1%
[8]
  viability, T/C: 13.2%
[29]
  viability, T/C: 4.86%
[30]
  viability, T/C: 2.92%
[9]
  viability, T/C: 3.87%
[10]
  viability, T/C: 3.03%
[11]
  viability, T/C: 3.72%
[12]
  viability, T/C: 2.59%
[31]
  viability, T/C: 0.47%
[32]
  viability, T/C: 1.56%
[13]
  viability, T/C: 0.48%
[14]
  viability, T/C: 0.16%
[15]
  viability, T/C: 1.64%
[16]
  viability, T/C: 1.15%
[33]
  viability, T/C: 1.02%
[34]
  viability, T/C: 1.06%
[17]
  viability, T/C: 1.3%
[18]
  viability, T/C: 1.09%
[19]
  viability, T/C: 1.55%
[20]
  viability, T/C: 0.99%
[35]
  viability, T/C: 0.74%
[36]
  viability, T/C: 1.11%
[21]
  viability, T/C: 0.45%
[22]
  viability, T/C: 1.75%
[23]
  viability, T/C: 2.12%
[24]
  viability, T/C: 1.84%
